tested on: Hedgehog signaling pathway; test: Gli-Luc luciferase reporter gene assay in C3H10T1/2/Gli-Luc cells under Shh-N stimulation; type: cell-based; settings: Mus musculus, C3H 10T1/2, 24 h, luciferase RLU, read-out: biological activity: IC50 of the inhibitory activities of compounds on the hedgehog pathway
From the text: The luciferase (Gli-Luc) reporter gene with Gli response element was transfected into C3H10T1/2 cells, under Shh-N stimulation conditions, determine the Hedgehog signaling pathway inhibitors through the detection of gene expression in cell activity report. In this study, we evaluated the inhibitory effects of compounds on Hedgehog signaling pathway in the IC50 value of the compound as an index.
Cell lines: C3H10T1/2/Gli-Luc stable cell line • C3H10T1/2/Gli-Luc Cell culture medium (DMEM/high glucose HyClone, #SH30022.01B; 10% serum Hyclone, #SV30087; 0.4% Hygromycin B Roche, #13398200) • 0.25% Trypsin-EDTA (Gibco, #25200)
Shh-N, HEK293/SHH-N stable cell culture supernatant
Inoculate the logarithmic growth phase of C3H10T1/2/Gli-Luc cells into a 96-well culture plate with 20000 cells per well, cells were cultured in a 37° C., 5% CO2 incubator overnight. The next day, the compounds were diluted in the following ways: the positive compound GDC0449 (1 mM) and the compounds (1 mM) to be measured were serially diluted to 7 concentrations by DMSO according to 1:3 and 1:10 respectively, the eighth is for DMSO control, and then diluted with fresh medium 100 times. The medium of the cells cultured overnight was removed, 80 μL fresh culture medium was added per well, then 20 μL gradiently diluted positive compound and compounds to be measured and 100 μL 30 nM Shh-N containing conditioned medium were added, each concentration repeated 2 wells, at the same time, positive and negative reference well were set (i.e. Shh Ctrl: 80 μL fresh medium+20 μL 1% DMSO containing medium+100 μL 30 nM Shh-N containing conditioned medium; Unstimulated Ctrl: 180 μL fresh medium+20 μL 1% DMSO containing medium), cells were cultured in the incubator for further 24 h.
Intracellular luciferase activity detection: take the cells out of 96-well plate, discard the culture medium, the cells were washed with PBS twice, then each well added with 20 μL lysate (Promega E1531), oscillate pyrolysis at room temperature for 30 min. 5 μL cell lysates were transferred to 384-well plate (Greiner 781074), then each well was added with 25 μL luciferase reaction liquid (Promega E1501), after rapid mixed, immediately placed into the VarioSkan Flash multi-function reading instrument to read the relative light units (RLU) value.
Data analysis: using Prism's GraphPad 5 for data analysis. RLU reading to the logarithmic mapping of compound concentration on behalf of luciferase activity, and then curve fitting using the following equation to give IC50 value, Y (RLU)=minimum+(maximum−minimum)/(1+10^(log of compound concentration−Log IC50)).

IC50 [µM] | SMILES
1 to 5 | Cc1cn(-c2ccc(N3C[C@@H](C)O[C@@H](C)C3)cc2)c(=O)c2cccc(-c3cccn3C)c12 [Embodiment 48]
0.5 to 1 | Cc1cn(-c2ccc(N3C[C@@H](C)O[C@@H](C)C3)cc2)c(=O)c2cccc(-c3ccncc3)c12 [Embodiment 49]
0.5 to 1 | Cc1cn(-c2ccc(N3C[C@@H](C)O[C@@H](C)C3)cc2)c(=O)c2cccc(-c3ccc(F)cc3)c12 [Embodiment 50]
0.1 to 0.5 | Cc1cn(-c2ccc(N3C[C@@H](C)O[C@@H](C)C3)cc2)c(=O)c2cccc(-c3ccc(Cl)cc3)c12 [Embodiment 51]
0.1 to 0.5 | Cc1cn(-c2ccc(N3C[C@@H](C)O[C@@H](C)C3)cc2)c(=O)c2cccc(-c3ccc(C#N)cc3)c12 [Embodiment 52]
0.5 to 1 | Cc1cn(-c2ccc(N3C[C@@H](C)O[C@@H](C)C3)cc2)c(=O)c2cccc(-c3ccccn3)c12 [Embodiment 53]
1 to 5 | Cc1cn(-c2ccc(N3C[C@@H](C)O[C@@H](C)C3)cc2)c(=O)c2cccc(-c3cncnc3)c12 [Embodiment 54]
1 to 5 | Cc1cn(-c2ccc(N3C[C@@H](C)O[C@@H](C)C3)cc2)c(=O)c2cccc(-c3ccc(C#N)cn3)c12 [Embodiment 55]
0.5 to 1 | Cc1cn(-c2ccc(N3C[C@@H](C)O[C@@H](C)C3)cc2)c(=O)c2cccc(-c3ccc(C#N)nc3)c12 [Embodiment 56]
0.5 to 1 | Cc1cn(-c2ccc(N3C[C@@H](C)O[C@@H](C)C3)cc2)c(=O)c2cccc(-c3ccccc3)c12 [Embodiment 57]
0.5 to 1 | Cc1cn(-c2ccc(N3C[C@@H](C)O[C@@H](C)C3)cc2)c(=O)c2cccc(-c3ccc(C#N)c(F)c3)c12 [Embodiment 59]
0.1 to 0.5 | Cc1cn(-c2ccc(N3C[C@@H](C)O[C@@H](C)C3)cc2)c(=O)c2cccc(-c3ccc(C#N)cc3F)c12 [Embodiment 60]
0.1 to 0.5 | Cc1cc(-c2cccc3c(=O)n(-c4ccc(N5C[C@@H](C)O[C@@H](C)C5)cc4)cc(C)c23)ccc1C#N [Embodiment 61]
0.1 to 0.5 | Cc1cc(C#N)ccc1-c1cccc2c(=O)n(-c3ccc(N4C[C@@H](C)O[C@@H](C)C4)cc3)cc(C)c12 [Embodiment 62]
1 to 5 | Cc1cn(-c2ccc(N3C[C@@H](C)O[C@@H](C)C3)cc2)c(=O)c2cccc(-c3cccc(C#N)c3)c12 [Embodiment 63]
0.5 to 1 | Cc1cn(-c2ccc(N3C[C@@H](C)O[C@@H](C)C3)cc2)c(=O)c2cccc(-c3ccccc3C#N)c12 [Embodiment 64]
0.5 to 1 | Cc1cn(-c2ccc(N3C[C@@H](C)O[C@@H](C)C3)cc2)c(=O)c2cccc(-c3ccc(Br)cc3)c12 [Embodiment 65]
0.5 to 1 | Cc1cn(-c2ccc(N3C[C@@H](C)O[C@@H](C)C3)nc2)c(=O)c2cccc(-c3ccc(C#N)cc3)c12 [Embodiment 66]
0.5 to 1 | Cc1cn(-c2ccc(N3C[C@@H](C)O[C@@H](C)C3)nc2)c(=O)c2cccc(-c3ccc(C(F)(F)F)cc3)c12 [Embodiment 67]
1 to 5 | Cc1cn(-c2ccc(N3C[C@@H](C)O[C@@H](C)C3)nc2)c(=O)c2cccc(-c3ccc(OC(F)(F)F)cc3)c12 [Embodiment 68]
0.5 to 1 | Cc1cn(-c2ccc(N3C[C@@H](C)O[C@@H](C)C3)cc2)c(=O)c2cccc(-c3ccc(C4CC4)cc3)c12 [Embodiment 69, 5-(4-cyclopropylphenyl)-2-(4-((2R,6S)-2,6-dimethylmorpholino)phenyl)-4-methylisoquinolin-1(2H)-one]
0.5 to 1 | C[C@@H]1CN(c2ccc(-n3ccc4c(-c5ccc(C#N)cc5)cccc4c3=O)cn2)C[C@H](C)O1 [Embodiment 70, 4-(2-(6-(2,6-dimethylmorpholino-4-yl)pyridin-3-yl)-1-oxo-1,2-dihydroisoquinolin-5-yl)benzonitrile]
1 to 5 | C[C@@H]1CN(c2ccc(-n3ccc4c(-c5ccc(C(F)(F)F)cc5)cccc4c3=O)cn2)C[C@H](C)O1 [Embodiment 71]
1 to 5 | C[C@@H]1CN(c2ccc(-n3ccc4c(-c5ccc(OC(F)(F)F)cc5)cccc4c3=O)cn2)C[C@H](C)O1 [Embodiment 72]
